One may read the ΔTm as the shift of the melting midpoint relative to a reference. One may read the Kd as the free concentration of one partner at which half of the binding sites on the other are occupied at equilibrium, for simple one-to-one binding. Usually IC50 stands for the concentration that inhibits the measured activity by half. The low end stands for higher potency, the high end for lower potency. By kcat/Km is commonly meant the second-order rate constant that governs catalysis at low substrate concentration.

Active and inactive are the calls of the source. The rule behind the calls is not given here.

Data set [1] has as its target T1, Succinyl-diaminopimelate desuccinylase (Haemophilus influenzae (strain ATCC 51907 / DSM 11121 / KW20 / Rd)) (UniProt P44514).
T1 sequence (whole entry): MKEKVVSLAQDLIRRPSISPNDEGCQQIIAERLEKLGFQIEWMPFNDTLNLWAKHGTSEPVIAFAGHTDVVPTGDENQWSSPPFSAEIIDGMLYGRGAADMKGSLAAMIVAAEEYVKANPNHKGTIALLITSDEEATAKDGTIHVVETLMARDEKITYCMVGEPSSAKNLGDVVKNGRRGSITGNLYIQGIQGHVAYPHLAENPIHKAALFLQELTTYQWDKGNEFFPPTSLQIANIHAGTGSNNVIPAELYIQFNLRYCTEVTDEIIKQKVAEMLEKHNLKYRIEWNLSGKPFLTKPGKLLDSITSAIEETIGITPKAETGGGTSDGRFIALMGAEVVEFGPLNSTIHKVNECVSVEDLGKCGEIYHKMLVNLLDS
Nature of the data set: Thermal stabilization of Haemophilus influenzae DapE assessed as increase in first melting temperature by SYPRO orange dye based thermal shift assay.

Data set [2] concerns the target T1, Succinyl-diaminopimelate desuccinylase (Haemophilus influenzae (strain ATCC 51907 / DSM 11121 / KW20 / Rd)). Nature of the data set: Thermal stabilization of Haemophilus influenzae DapE assessed as increase in second melting temperature by SYPRO orange dye based thermal shift assay.
The target in data set [3] is T2, Succinyl-diaminopimelate desuccinylase (Haemophilus influenzae (strain ATCC 51907 / DSM 11121 / KW20 / Rd), UniProt P44514).
T2 sequence (P44514 whole entry): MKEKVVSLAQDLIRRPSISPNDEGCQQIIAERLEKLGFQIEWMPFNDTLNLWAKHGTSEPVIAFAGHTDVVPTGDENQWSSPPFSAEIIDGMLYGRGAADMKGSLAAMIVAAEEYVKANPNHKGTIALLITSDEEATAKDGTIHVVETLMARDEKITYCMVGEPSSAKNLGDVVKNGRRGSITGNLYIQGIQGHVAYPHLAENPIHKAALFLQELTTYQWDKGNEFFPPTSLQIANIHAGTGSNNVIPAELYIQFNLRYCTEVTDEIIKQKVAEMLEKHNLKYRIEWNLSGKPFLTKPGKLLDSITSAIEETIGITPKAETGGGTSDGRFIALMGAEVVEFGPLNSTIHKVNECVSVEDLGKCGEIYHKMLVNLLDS
Nature of the data set: Binding affinity to Haemophilus influenzae DapE assessed as dissociation constant.

Data set [4] has as its target T2, Succinyl-diaminopimelate desuccinylase. Nature of the data set: Inhibition of Haemophilus influenzae DapE at 80 degreeC incubated for 15 mins by ninhydrin based assay.
For data set [5] the target is unchanged. Nature of the data set: Inhibition of Haemophilus influenzae DapE at 100 degreeC incubated for 10 mins by ninhydrin based assay.
Substrate in data set [6]: CN(C)[C@@H](CCC[C@H](NC(=O)CCC(=O)O)C(=O)O)C(=O)O
Nature of the data set: Substrate activity at Haemophilus influenzae DapE assessed as Kcat/Km at 80 DegreeC incubated for 15 mins by ninhydrin based assay.

Substrate in data set [7]: CN(C)[C@@H](CCC[C@H](NC(=O)CCC(=O)O)C(=O)O)C(=O)O
Nature of the data set: Substrate activity at Haemophilus influenzae DapE assessed as Kcat/Km at 100 DegreeC incubated for 10 mins by ninhydrin assay.

Substrate in data set [8]: CN(C)[C@@H](CCC[C@H](NC(=O)CCC(=O)O)C(=O)O)C(=O)O
Nature of the data set: (§1) Substrate activity at Haemophilus influenzae DapE assessed as Kcat/Km incubated for 10 mins by ninhydrin based assay.

Substrate in data set [9]: CN[C@@H](CCC[C@H](NC(=O)CCC(=O)O)C(=O)O)C(=O)O
Described as §1.

On to `CN[C@@H](CCC[C@H](NC(=O)CCC(=O)O)C(=O)O)C(=O)O`, for which, in data set [1], the outcome was Active.

For the molecule `CN(C)[C@@H](CCC[C@H](NC(=O)CCC(=O)O)C(=O)O)C(=O)O`, the thermal shift (ΔTm) in [2] is 3 °C. In addition, the Kd in data set [3] turned out to be 1320 µM. The outcome in [1] was Active. Moreover, the IC50 in data set [4] is 0.89 µM; in [5], 1.5 µM.

B1: Succinyl-diaminopimelate desuccinylase (Haemophilus influenzae (strain ATCC 51907 / DSM 11121 / KW20 / Rd)), P44514 (protein)
chain: MKEKVVSLAQDLIRRPSISPNDEGCQQIIAERLEKLGFQIEWMPFNDTLNLWAKHGTSEPVIAFAGHTDVVPTGDENQWSSPPFSAEIIDGMLYGRGAADMKGSLAAMIVAAEEYVKANPNHKGTIALLITSDEEATAKDGTIHVVETLMARDEKITYCMVGEPSSAKNLGDVVKNGRRGSITGNLYIQGIQGHVAYPHLAENPIHKAALFLQELTTYQWDKGNEFFPPTSLQIANIHAGTGSNNVIPAELYIQFNLRYCTEVTDEIIKQKVAEMLEKHNLKYRIEWNLSGKPFLTKPGKLLDSITSAIEETIGITPKAETGGGTSDGRFIALMGAEVVEFGPLNSTIHKVNECVSVEDLGKCGEIYHKMLVNLLDS
B1: the kcat/Km in data set [6] is 3.49 10^5/M/s; in data set [7], 4.03 10^5/M/s; in data set [8], 3.49 10^5/M/s; in [9], 4.4 10^5/M/s.

These data come from ChEMBL document CHEMBL5344419, “Synthesis and characterization of the N-succinyl-l,l-diaminopimelic acid desuccinylase (DapE) alternate substrate analog N,N-dimethyl-l,l-SDAP” (Bioorg Med Chem, 2023).
